ChEMBL document CHEMBL1150192, “Tetracyclic Triterpenoids of the Fruit Coats of Azadirachta indica” (J Nat Prod, 1991)
Active and inactive are the calls of the source.

Experiments:
Format in all cases: functional, organism-based
Salmonella = test: Antimicrobial activity against Salmonella schottmuelleri
Bacillus subtilis = test: Antimicrobial activity against Bacillus subtilis
Proteus vulgaris = test: Antimicrobial activity against Proteus vulgaris
Bacillus pumilus = test: Antimicrobial activity against Bacillus pumilus
Salmonella paratyphi = test: Antimicrobial activity against Salmonella paratyphi A; details: Salmonella enterica subsp. enterica serovar Paratyphi A
[1] = system: Salmonella enterica subsp. enterica serovar Typhi str. CT18; test: Antimicrobial activity against Salmonella typhi
[2] = system: Staphylococcus epidermidis; test: Antimicrobial activity against Staphylococcus epidermidis
Streptococcus pyogenes = test: Antimicrobial activity against Streptococcus pyogenes
Staphylococcus = test: Antimicrobial activity against Staphylococcus citreus
Serratia marcescens = test: Antimicrobial activity against Serratia marcescens
Shigella sonnei = test: Antimicrobial activity against Shigella sonnei
Staphylococcus aureus = test: Antimicrobial activity against Staphylococcus aureus
Klebsiella pneumoniae = test: Antimicrobial activity against Klebsiella pneumoniae
Shigella dysenteriae = test: Antimicrobial activity against Shigella dysenteriae
Escherichia coli = test: Antimicrobial activity against Escherichia coli

Measured: Activity

CC(=O)O[C@@H]1C[C@H]2C(C)(C)C(=O)C=C[C@]2(C)[C@H]2CC[C@]3(C)C(=CC[C@H]3[C@@H](CO)C[C@H](O)C(=O)C(C)(C)O)[C@@]21C
inactive: all assays above
